The experiment has as its target T1, mTOR (Homo sapiens, UniProt P42345).
T1 construct: capturing of endogenously expressed target proteins from cell extracts by a bead-immobilized capturing ligand; endogenous in cells; host or cells: HuT-78 cells (ECACC 88041901), cell lysate
As to the kind of experiment: mTOR kinobeads assay (competition-binding assay). The note with it: HuT-78 cell extract, endogenously expressed mTOR, bead-immobilized capturing ligand; mean of multiple experiments; read-out: mean pIC50, affinity for mTOR (converted). The protocol:
The affinity of test compounds for mTOR was determined in the mTOR kinobeads assay. This is a competition-binding assay based on the capturing of endogenously expressed target proteins from cell extracts by a bead-immobilized capturing ligand in presence of the test compound.
HuT-78 cells (European Collection of Authenticated Cell Cultures, 88041901) were cultured according to vendor's instructions. Frozen cell pellets were homogenized in 3× pellet volumes lysis buffer (50 mM Tris-HCl, 0.4% (v/v) Igepal-CA630, 5% glycerol, 150 mM NaCl, 1.5 mMMgCl2, 25 mM NaF, 1 mM sodium vanadate, 1 mM DTT, pH 7.5, supplemented with EDTA-free protease inhibitor tablet (Roche)). The sample was dispersed using a Dounce homogenizer, kept rotating for 30 min at 4° C., and centrifuged for 10 min at 20 000 g at 4° C. The supernatant was centrifuged again for 1 h at 145 000 g. The protein concentration was determined by Bradford assay (BioRad), aliquots were snap frozen in liquid nitrogen and stored at −80° C.
The capturing matrices were generated by derivatizing N-hydroxysuccinimide (NHS) activated Sepharose 4 beads (GE Healthcare) with the functionalized ligands Compound A and Compound C at a ligand density of 5 mM. Remaining NHS-groups were blocked with ethanolamine.
For the mTOR kinobeads assay the matrices were combined in a 1:1 ratio and equilibrated in DP buffer (50 mM Tris-HCl (pH 7.5), 0.4% (v/v) Igepal-CA630, 5% (v/v) glycerol, 150 mM NaCl, 1.5 mM MgCl2, 25 mM NaF, 1 mM Na3VO4, 1 mM dithiothreitol). All steps of the mTOR kinobeads assay were performed at 4° C. or on ice. The cell lysate was diluted with DP buffer to a final concentration of 5 mg/ml and a final detergent concentration of 0.4% (v/v) Igepal-CA630. For the assay 250 μg cell lysate and 2.5 μl capturing matrix per well (final assay volume: 75 μl) were incubated in the presence of test compounds in a 384-well filter plate (MultiScreenHTS HV Filter Plate, 0.45 μm, MZHVNOW50, Merck Millipore). Each plate contained 16 positive (100 μM Compound B) and 16 negative (2% v/v DMSO) control wells. Compounds were tested in a concentration-response applying 1:3 or 1:4 dilution steps for in total 11 data points. DMSO concentration was 2% (v/v). After 2 h incubation on an overhead shaker (Roto-Shake Genie, Scientific Industries Inc.) at 4° C. the non-bound fraction was removed by washing the beads with DP buffer. Proteins retained on the beads were eluted in SDS sample buffer (200 mM Tris (pH 7.4), 250 mM Trizma Base, 4% (w/v) SDS, 20% (v/v) glycerol, 0.01% (w/v) bromophenol blue, 50 mM dithiothreitol) into a collection plate (384 well polypropylene microplate, V-shape, Greiner, 781 280). Eluates were spotted on nitrocellulose membranes (400 nl per spot) using an automated pin-tool liquid transfer (Biomek FX, Beckman). After drying, the membranes were rehydrated in 20% (v/v) ethanol and blocked by incubation with Odyssey blocking buffer (LICOR, 927-40000) for 1 h at room temperature. Blocked membranes were incubated overnight at 25° C. with Odyssey blocking buffer supplemented with a specific anti-mTOR antibody (Cell Signaling, 2972; 1:500) and 0.4% TWEEN-20. Then the membranes were washed in PBST buffer and incubated for 60 minutes at room temperature with the detection antibody (IRDye™ labelled antibody from LI-COR) diluted in Odyssey blocking buffer (LICOR 927-40000) containing 0.2% TWEEN-20. Then the membranes were washed with PBST and finally rinsed twice with PBS buffer to remove residual Tween-20. The membranes were then scanned with the Odyssey® Infrared Imaging System (LI-COR Biosciences). Fluorescence signals were recorded and analyzed according to the instructions of the manufacturer. Concentration response curves were computed with the software Activity Base. All data were normalized to the mean of 16 high (negative control) and 16 low (positive control) control wells on each plate. […]

Several values for one entry are separate records, joined by “and”; a condition that tells them apart may be missing. Equal values may be shown once.

As to `CNCc1cc2nc(-c3cc(C(C)(C)S(C)(=O)=O)cc(N4CCOC[C@@H]4C)n3)ccc2[nH]1` [Example 2, (S)—N-methyl-1-(5-(6-(3-methylmorpholino)-4-(2-(methylsulfonyl)propan-2-yl)pyridin-2-yl)-1H-pyrrolo[3,2-b]pyridin-2-yl)methanamine], the IC50 is 2.51 to 31.6 nM and 2.51 to 316 nM. Take `CNCc1cc2nc(-c3cc(C(C)(C)S(C)(=O)=O)cc(N4[C@@H]5CC[C@H]4COC5)n3)ccc2[nH]1` [Example 3, 1-(5-(6-((1R,5S)-3-oxa-8-azabicyclo[3.2.1]octan-8-yl)-4-(2-(methylsulfonyl)propan-2-yl)pyridin-2-yl)-1H-pyrrolo[3,2-b]pyridin-2-yl)-N-methylmethanamine]: the IC50 was 2.51 to 316 nM. As for `CNCc1cc2nc(-c3cc(C(C)(C)S(C)(=O)=O)cc(N4CC5CCC(C4)O5)n3)ccc2[nH]1` [Example 4, 1-(5-(6-(8-oxa-3-azabicyclo[3.2.1]octan-3-yl)-4-(2-(methylsulfonyl)propan-2-yl)pyridin-2-yl)-1H-pyrrolo[3,2-b]pyridin-2-yl)-N-methylmethanamine], the IC50 is 2.51 to 31.6 nM and 2.51 to 316 nM.

`CNCc1cc2nc(-c3cc(C(C)(C)S(C)(=O)=O)cc(N4C5CCCC4COC5)n3)ccc2[nH]1` [Example 5, 1-(5-(6-(3-oxa-9-azabicyclo[3.3.1]nonan-9-yl)-4-(2-(methylsulfonyl)propan-2-yl)pyridin-2-yl)-1H-pyrrolo[3,2-b]pyridin-2-yl)-N-methylmethanamine]: the IC50 is 2.51 to 316 nM. For `CNCc1cc2nc(-c3cc(CS(C)(=O)=O)cc(N4CCOC[C@@H]4C)n3)ccc2[nH]1` [Example 6, (S)—N-methyl-1-(5-(6-(3-methylmorpholino)-4-((methylsulfonyl)methyl)pyridin-2-yl)-1H-pyrrolo[3,2-b]pyridin-2-yl)methanamine], the IC50 is 2.51 to 31.6 nM and 2.51 to 316 nM. For `CCS(=O)(=O)C(C)(C)c1cc(-c2ccc3[nH]c(CNC)cc3n2)nc(N2CCOC[C@@H]2C)c1` [Example 7, (S)-1-(5-(4-(2-(ethylsulfonyl)propan-2-yl)-6-(3-methylmorpholino)pyridin-2-yl)-1H-pyrrolo[3,2-b]pyridin-2-yl)-N-methylmethanamine] the value was 2.51 to 316 nM; for `CC[C@H]1COCCN1c1cc(C(C)(C)S(=O)(=O)C2CC2)cc(-c2ccc3[nH]c(CNC)cc3n2)n1` [Example 9, (S)-1-(5-(4-(2-(cyclopropylsulfonyl)propan-2-yl)-6-(3-ethylmorpholino)pyridin-2-yl)-1H-pyrrolo[3,2-b]pyridin-2-yl)-N-methylmethanamine], 2.51 to 316 nM. For `CC[C@H]1COCCN1c1cc(CS(=O)(=O)C2CC2)cc(-c2ccc3[nH]c(CNC)cc3n2)n1` [Example 10, (S)-1-(5-(4-((cyclopropylsulfonyl)methyl)-6-(3-ethylmorpholino)pyridin-2-yl)-1H-pyrrolo[3,2-b]pyridin-2-yl)-N-methylmethanamine] the value was 2.51 to 31.6 nM and 2.51 to 316 nM; for `CC[C@H]1COCCN1c1cc(C2(S(=O)(=O)C3CC3)CC2)cc(-c2ccc3[nH]c(CNC)cc3n2)n1` [Example 11, (S)-1-(5-(4-(1-(cyclopropylsulfonyl)cyclopropyl)-6-(3-ethylmorpholino)pyridin-2-yl)-1H-pyrrolo[3,2-b]pyridin-2-yl)-N-methylmethanamine], 2.51 to 316 nM.

As for `CNCc1cc2nc(-c3cc(C(F)(F)S(C)(=O)=O)cc(N4CCOC[C@@H]4C)n3)ccc2[nH]1` [Example 12, (S)-1-(5-(4-(difluoro(methylsulfonyl)methyl)-6-(3-methylmorpholino)pyridin-2-yl)-1H-pyrrolo[3,2-b]pyridin-2-yl)-N-methylmethanamine], the IC50 was 2.51 to 316 nM. The value for `CC[C@H]1COCCN1c1cc(CS(C)(=O)=O)cc(-c2ccc3[nH]c(CNC)cc3n2)n1` [Example 13, (S)-1-(5-(6-(3-ethylmorpholino)-4-((methylsulfonyl)methyl)pyridin-2-yl)-1H-pyrrolo[3,2-b]pyridin-2-yl)-N-methylmethanamine] was 2.51 to 31.6 nM and 2.51 to 316 nM; that for `CC[C@H]1COCCN1c1cc(CS(=O)(=O)N(C)C)cc(-c2ccc3[nH]c(CNC)cc3n2)n1` [Example 17, (S)-1-(2-(3-ethylmorpholino)-6-(2-((methylamino)methyl)-1H-pyrrolo[3,2-b]pyridin-5-yl)pyridin-4-yl)-N,N-dimethylmethanesulfonamide] was 2.51 to 31.6 nM and 2.51 to 316 nM. The value for `CC[C@H]1COCCN1c1cc(C2(S(C)(=O)=O)CC2)cc(-c2ccc3[nH]c(CNC)cc3n2)n1` [Example 19, [(5-{6-[(3S)-3-ethylmorpholin-4-yl]-4-(1-methanesulfonylcyclopropyl)pyridin-2-yl}-1H-pyrrolo[3,2-b]pyridin-2-yl)methyl](methyl)amine] was 2.51 to 31.6 nM and 2.51 to 316 nM. The value for `CNCc1cc2nc(-c3cc(C4(S(C)(=O)=O)CC4)cc(N4CCOC[C@@H]4C)n3)ccc2[nH]1` [Example 20, ({5-[4-(1-methanesulfonylcyclopropyl)-6-[(3S)-3-methylmorpholin-4-yl]pyridin-2-yl]-1H-pyrrolo[3,2-b]pyridin-2-yl}methyl)(methyl)amine] was 2.51 to 316 nM; that for `CC[C@H]1COCCN1c1cc(C(C)(C)S(C)(=O)=O)cc(-c2ccc3[nH]c(CN)cc3n2)n1` [Example 21, 1-(5-{6-[(3S)-3-ethylmorpholin-4-yl]-4-(2-methanesulfonylpropan-2-yl)pyridin-2-yl}-1H-pyrrolo[3,2-b]pyridin-2-yl)methanamine] was 2.51 to 31.6 nM and 2.51 to 316 nM. Take `CC[C@H]1COCCN1c1cc(C2(S(C)(=O)=O)CCOCC2)cc(-c2ccc3[nH]c(CN)cc3n2)n1` [Example 23, 1-(5-{6-[(3S)-3-ethylmorpholin-4-yl]-4-(4-methanesulfonyloxan-4-yl)pyridin-2-yl}-1H-pyrrolo[3,2-b]pyridin-2-yl)methanamine]: the IC50 was 2.51 to 31.6 nM and 2.51 to 316 nM. As to `CNCc1cc2nc(-c3cc(CS(C)(=O)=O)cc(N4CC5CCC(C4)O5)n3)ccc2[nH]1` [Example 25, ({5-[4-(methanesulfonylmethyl)-6-{8-oxa-3-azabicyclo[3.2.1]octan-3-yl}pyridin-2-yl]-1H-pyrrolo[3,2-b]pyridin-2-yl}methyl)(methyl)amine], the IC50 is 2.51 to 31.6 nM and 2.51 to 316 nM. For the compound `CC[C@H]1COCCN1c1cc(C(C)(C)S(N)(=O)=O)cc(-c2ccc3[nH]c(CNC)cc3n2)n1` [Example 28, 2-{2-[(3S)-3-ethylmorpholin-4-yl]-6-{2-[(methylamino)methyl]-1H-pyrrolo[3,2-b]pyridin-5-yl}pyridin-4-yl}propane-2-sulfonamide], the IC50 is 2.51 to 31.6 nM and 2.51 to 316 nM.

Take `CC[C@H]1COCCN1c1cc(CS(=O)(=O)NC)cc(-c2ccc3[nH]c(CNC)cc3n2)n1` [Example 30, 1-{2-[(3S)-3-ethylmorpholin-4-yl]-6-{2-[(methylamino)methyl]-1H-pyrrolo[3,2-b]pyridin-5-yl}pyridin-4-yl}-N-methylmethanesulfonamide]: the IC50 is 2.51 to 31.6 nM and 2.51 to 316 nM. Turning to `CC[C@H]1COCCN1c1cc(C2(S(=O)(=O)N(C)C)CCOCC2)cc(-c2ccc3[nH]c(CNC)cc3n2)n1` [Example 31, 4-{2-[(3S)-3-ethylmorpholin-4-yl]-6-{2-[(methylamino)methyl]-1H-pyrrolo[3,2-b]pyridin-5-yl}pyridin-4-yl}-N,N-dimethyloxane-4-sulfonamide], the IC50 was 2.51 to 31.6 nM and 2.51 to 316 nM. In the case of `CC[C@H]1COCCN1c1cc(C(C)(C)S(C)(=O)=O)cc(-c2ccc3[nH]c(CO)cc3n2)n1` [Example 32], the IC50 was 2.51 to 31.6 nM and 2.51 to 316 nM.

For the origin of these results see patent publication US11254671B2, “Chemical compounds” (GLAXOSMITHKLINE INTELLECTUAL PROPERTY DEVELOPMENT LIMITED, priority 2017, dated 2022).
